# In patent US20100069345A1, “Lanthanide-porphyrin complexes as anti-tumor agents” (priority 2005, published 2010):
# Experiments:
# HeLa cells = experiment: Confocal microscopy with AO/EB staining; format: cell-based, human; details: complex 1 0.2 μM 20 h, complex 2b 10 μM 16 h
# From the text: Confocal Microscopic Experiment. By examining cell morphology under scanning confocal microscopy, the type of cell death can be distinguished. Early phase of apoptosis is characterized by the formation of apoptotic bodies when the integrity of the cell membrane is maintained without cell lysis. On the other hand, necrosis is characterized by cell lyses with the leaking out of internal cellular components such as DNA. With ethidium bromide (DNA stain) and acridine orange (cell membrane stain) as staining agents, normal, apoptotic and necrotic cells can be distinguished under laser confocal microscopy (Chan et. al., Inorg. Chem. 2002, 41, 3161-3171).
# [1] = test system: human hepatocellular cancinoma cells QGY-7703; experiment: MTT cell viability assay, QGY-7703; format: cell-based
# From the text: (§1) Human cervical epitheloid carcinoma cells (HeLa), human hepatocellular carcinoma cells (HepG2 and Hep3B), human breast cancer cells (MCF-7), human coloadenocarcinoma cells (HCT-8), and normal human lung fibroblast cells (CCD-19Lu) were purchased from American Type Culture Collection (ATCC) Rockville, Md., USA. The human hepatocellular cancinoma cells QGY-7703, and the multi-drug resistant cell line QGY-TR50 derived from QGY-7703, were generously provided by Prof. Yong Xie (The Hong Kong University of Science and Technology, Hong Kong PRC). QGY-TR50 cells were isolated and cultured as described (J. Zhou, S. C. Cheng, D. Luo, Y. Xie Biochem. Biophys. Res. Commun. 2001, 280, 1237-1242). Human nasopharyngeal carcinoma cells (SUNE1 and its cisplatin-resistant variant—CNE2) were derived from poorly differentiated NPC in Chinese patients and were generously provided by Dr. S. W. Tsao (The University of Hong Kong, Hong Kong PRC). Cell culture flasks and 96-well microtitre plates were from Nalge Nunc Int. Culture medium, other medium constituents and phosphate buffer saline (PBS) were obtained by Gibco BRL Rockville, Md., USA. Cell Proliferation kit I (MTT) was purchased from Roche. Mannheim, Germany.
# [2] = test system: multi-drug resistant liver tumor cells (QGY-TR50); experiment: Murine xenograft tumor model; format: in vivo, mouse; details: 10 mg/kg/day i.p. daily for 22 days, nude mice, vs control group
# Experimental: The murine model for anti-tumor evaluation in vivo was the male BALB/c-nu/nu mouse originated from Charles River Laboratories, Inc. and the colony was maintained in the Laboratory Animal Unit, The University of Hong Kong. Mice were grafted in the left flank with QGY-TR50 cells subcutaneously. All of the experiments were carried out according to the guidelines of the Committee on the Use of Live Animals in Teaching and Research, The University of Hong Kong.
# The anti-tumor effect of complex 1 was examined in the xenograft mice model. A complex 1 suspension was prepared by dissolving the complex in 1% EtOH and mixed with a solution containing 0.2% sodium carboxymethyl cellulose (Sigma) and 0.1% Tween 80 (Sigma) in PBS. A dose tolerance test was conducted to determine the appropriate dose ranges for complex 1. […] The dimensions of the tumors were measured twice weekly with calipers, and tumor volumes were estimated using two-dimensional measurements of length and width and calculated with the formula [l×(w)^2]×0.52 (l, length; w, width) according to described procedures (M. Guba, P. von Breitenbuch, M. Steinbauer, G. Koehl, S. Flegel, M. Hornung, C. J. Bruns, C. Zuelke, S. Farkas, M. Anthuber, K. W. Jauch, E. K. Geissler, Nat Med 2002, 8, 128-135). The weights of the mice were also recorded twice weekly throughout the course of treatment. […]
# [3] = test system: human hepatocellular carcinoma cells (HepG2); experiment: MTT cell viability assay, HepG2; format: cell-based
# From the text: as §1
# [4] = test system: human hepatocellular carcinoma cells (Hep3B); experiment: MTT cell viability assay, Hep3B; format: cell-based; details: 37° C., 48 h, mean ± SD
# From the text: as §1
# cytochrome c = experiment: Western blotting of mitochondrial and cytosolic fractions, cytochrome c; format: cell-based, human; details: HeLa treated with complex 1
# Experimental: Preparation of Mitochondrial and Cytosolic Fractions. Subcellular fractionations of cells were carried out as described previously with modifications […]. In brief, cells were harvested by centrifugation at 1000 g for 5 min at 4° C. Cell pellets were washed once with ice-cold phosphate-buffered saline and resuspended in 5 volumes of buffer A (20 mM HEPES-KOH, pH 7.5, 10 mM KCl, 1.5 mM MgCl2, 1 mM sodium EDTA, 1 mM sodium EGTA, 1 mM dithiothreitol, 0.1 mM phenylmethylsulfonyl fluoride, 1× proteinase inhibitor mix) containing 250 mM sucrose. After incubation on ice for 15 min, the cells were homogenized with a 25-gauge needle for 20 strokes, and the homogenates were centrifuged at 1,000 g for 5 min at 4° C. […] The protein concentration of cell lysates in different portions was measured using a protein detection kit (Bio-Rad). […] Signals were detected using an ECL detection kit (Amersham Pharmacia Biotech) followed by exposure to X-ray films (Fujifilm).
# After treatment with complex 1 for different time intervals, the expressions of caspase 3, Bid and PARP were detected by the Western blotting analysis. […]
# [5] = test system: human coloadenocarcinoma cells (HCT-8); experiment: MTT cell viability assay, HCT-8; format: cell-based
# From the text: as §1
# [6] = IC50 of cisplatin divided by IC50 of complex
substance,measurement,setting,value
[Yb2(OEP)2](μ-OH)2 [Complex 1],cell morphology (type of cell death) under confocal microscopy,HeLa cells,both living and apoptotic cells were observed
same,"IC50 ratio cisplatin/complex, QGY-7703",[1]; [6],763
same,IC50,"[1]; MTT, 37° C., 48 h, mean ± SD",60 nM
same,times more effective than cisplatin in eradicating QGY-7703 human liver cancer cell line,[1]; compared with cisplatin,760 times
same,inhibition of the tumor volume,[2],40%
same,"IC50 ratio cisplatin/complex, HepG2",[3]; [6],22.7
same,IC50,"[3]; MTT, 37° C., 48 h, mean ± SD",210 ± 10 nM
same,IC50,[4],780 ± 60 nM
same,amount of cytochrome c in the cytosolic fraction,cytochrome c,increase
same,amount of cytochrome c in the mitochondria,cytochrome c,corresponding decrease
same,"IC50 ratio cisplatin/complex, HCT-8",[5]; [6],11.6
same,IC50,"[5]; MTT, 37° C., 48 h, mean ± SD",2270 ± 600 nM
